Consider 4 compounds from paper PMC12735872, “Development of ^18F/^11C-Labeled Pyrrolo-Pyridine/Pyrimidine LRRK2 Selective PET Radioligands” (Pharmaceuticals, 2025).

Read-outs that look alike come from different tables or passages of the source. Bounds are passed on as bounds.

The target in one data set is LRRK2 wild-type (WT) (Homo sapiens, UniProt Q5S007). Put plainly: LRRK2 wild-type Lanthascreen. The format is biochemical. The conditions noted are these: assay described in ref. 16; read-out: LRRK2 Lanthascreen WT cKi. (In TR-FRET formats the signal depends on donor and acceptor labels being close together.)
The target of the next data set is LRRK2 G2019S (Homo sapiens, UniProt Q5S007, G2019S). Put plainly: LRRK2 G2019S Lanthascreen. The format is biochemical. To be noted: assay described in ref. 16; read-out: LRRK2 Lanthascreen G2019S cKi.
The subject of the next data set is MDR1 (P-gp). Put plainly: MDR1-MDCK permeability and efflux ratio. The format is in vitro ADME. To be noted: dog, assay described in ref. 17. From the text:
Table 1 LRRK2 wild-type (WT) and G2019S Lanthascreen, MDR1-MDCK permeability (Papp A:B), and efflux ratio (B:A/A:B), free fractions in plasma (fp) and brain homogenate (fb) and PET Multi-Parameter Optimization (MPO) score of Compounds 1, 2, and 3. | column: Papp A:B ^2 (MDR1-MDCK) (cm/s × 10^−6); B:A/A:B ^2

Data set [1] is described as follows: Free fraction in plasma (fp). Type of data set: in vitro ADME. The conditions noted are these: method ref. 18. From the text:
Table 1 LRRK2 wild-type (WT) and G2019S Lanthascreen, MDR1-MDCK permeability (Papp A:B), and efflux ratio (B:A/A:B), free fractions in plasma (fp) and brain homogenate (fb) and PET Multi-Parameter Optimization (MPO) score of Compounds 1, 2, and 3. | column: fp ^3 (%)

Data set [2] is described as follows: Free fraction in brain homogenate (fb). Type of data set: in vitro ADME. The conditions noted are these: method ref. 18. An excerpt:
Table 1 LRRK2 wild-type (WT) and G2019S Lanthascreen, MDR1-MDCK permeability (Papp A:B), and efflux ratio (B:A/A:B), free fractions in plasma (fp) and brain homogenate (fb) and PET Multi-Parameter Optimization (MPO) score of Compounds 1, 2, and 3. | column: fb ^3 (%)

For the next data set, the system named is cynomolgus monkey brain. Put plainly: In vivo PET imaging in cynomolgus monkeys. To be noted: for Blocking effect on [^18F]1 brain binding in vivo: pretreatment 30 min before [^18F]1, GNE-7915 40 mg/kg, PFE-360 0.5 mg/kg iv. An excerpt: PET measurements were led using a high-resolution research tomograph (HRRT) from Siemens Molecular Imaging (Knoxville, TN, USA). List mode data were reconstructed using the ordinary Poisson-3D-ordered subset expectation maximization (OP-3D-OSEM) algorithm, with 10 repetitions and 16 subsets while modeling the point spread function (PSF). The in-plane resolution accomplished with OP-3D-OSEM and PSF was 1.5 mm full width at half maximum (FWHM) at the center of the field of view (FOV) and 2.4 mm at 10 cm off-center.
The study was approved by the Animal Ethics Committee of the Swedish Animal Welfare Agency and was performed according to “Guidelines for planning, conducting and documenting experimental research” (Dnr 5.2.18-4170/14 issued on 11 April 2014) of the KI as well as the “Guide for the Care and Use of Laboratory Animals” [26]. NHPs were supplied by the Astrid Fagraeus Laboratory (AFL) of the Swedish Institute for Infectious Disease Control (SMI), Solna, Sweden. Anesthesia was brought by intramuscular injection of ketamine hydrochloride (approximately 10 mg/kg) at AFL and continued with a mixture of sevoflurane (0–8.0%), oxygen, and medical air through endotracheal intubation at the KI PET center. The NHP head was immobilized using a homemade fixation device. Body temperature was maintained with a Bair Hugger model 505 (Arizant Healthcare, Eden Prairie, MN, USA) and monitored via an esophageal thermometer. ECG, heart rate, respiratory rate, blood pressure, and oxygen saturation were continuously examined throughout the experiments. The fluid balance was retained with continuous infusion of saline.
A 6 min transmission scan was performed before the injection of the radioligand using a single Cs-137 source. List mode data was acquired continuously for 93 min following intravenous administration of the radioligand. Images were reconstructed into 38 frames with varying intervals: […].
For all PET measurements, radioligands were administered via intravenous injection. Regions of interest (ROIs) were manually delineated on MRI images for each NHP, for the whole brain, cerebellum, caudate, putamen, thalamus, frontal cortex, temporal cortex, amygdala, posterior cingulate cortex, anterior cingulate cortex, hippocampus, occipital cortex, parietal cortex, ventral striatum, and insula. The summed PET images over the entire duration were co-registered with the individual NHP’s MRI image. After applying the co-registration parameters to the dynamic PET data, time–activity curves were generated for each brain region for every PET measurement. The standardized uptake value (SUV) was calculated for each brain region. The total distribution volume (VT) for all three radioligands were derived using one-tissue compartment (1-TC) and two-tissue compartment (2-TC) models.
On two separate occasions, PET measurements were performed after intravenous administration of GEN-7915 or PFE-360 with a slow infusion in one NHP (NHP2). The infusion lasted for 2 min, starting 30 min before PET scanning. The pretreatment formulations were prepared by dissolving it in DMSO (5%), Kolliphor EL (15%), and PBS (80%), and the pH of the final formulation was approximately 4.5–5.0. An automated blood sampling system (ABSS) measured continuous radioactivity for the first 3 min following the radioligand injection, while manual blood samples were taken at 4, 15, 30, 60, and 90 min post-injection to measure the radioactivity and metabolism.

In another data set the target is T1, LRRK2 (Homo sapiens, UniProt Q5S007).
T1 construct: Human brains without pathological findings were acquired from the National Institute of Forensic Medicine; from tissue; host or cells: human post-mortem control brain, whole-hemisphere sections (100 µm)
Put plainly: In vitro autoradiography, human whole-hemisphere brain slices. Type of data set: binding. The procedure:
Human brains without pathological findings were acquired from the National Institute of Forensic Medicine at Karolinska Institutet in Stockholm, Sweden. These brains were obtained during forensic autopsies (designated as control brain) and were processed in a manner like previously described methods. […] The brain was removed, and its tissues were kept in −85 °C until the sectioning process. The whole brain hemispheric slices were subsequently maintained at −25 °C until the commencement of autoradiography procedures. […] The sectioning of the brain and the autoradiography experiments were performed at the Psychiatry section, Department of Neuroscience, Karolinska Institutet, Sweden.
Whole brain hemispheres were sectioned into horizontal slices with a thickness of 100 µm using a Leica cryomacrocut system. The autoradiographic procedures followed the same protocols established in previous studies conducted in our laboratory. The whole-hemisphere sections of 100 micron thickness were incubated for 90 min at room temperature with their corresponding radiotracer (4 MBq/200 mL) in TRIS buffer (pH 7.4) containing sodium chloride (120 mM), potassium chloride (5 mM), calcium chloride (2 mM), and albumin (0.1% w/v). After incubation, sections were washed three times in the same buffer at room temperature for five minutes each, briefly dipped in ice-cold distilled water, dried, and then placed in the phosphor imaging plates. Binding density standards were prepared by serial dilution of the radioligand stock solution in the assay buffer. Readings were taken with the Fujifilm BAS-5000 (Fujifilm, Tokyo, Japan), while quantitative analysis was conducted with the Multi Gauge 3.2 image analysis software (Fujifilm, Tokyo, Japan). For blocking experiments, adjacent brain sections were co-incubated with LuAF66583 (0.1 µM or 10 µM).

Data set [3] in a line: Radiometabolite analysis in monkey plasma (gradient HPLC). Type of data set: in vivo, cynomolgus monkey. To be noted: baseline PET. The procedure: The technique published earlier was utilized for the analysis of radiometabolites in NHP blood plasma. During the entire PET measurement, the percentage of the injected radioligand and its corresponding radioactive metabolites and radioactivity was measured with a reverse-phase HPLC system with UV absorbance detector (λ = 254 nm) and a radioactive detector. […] The blood samples were centrifuged at 4000 rpm for 2 min to separate plasma. From the centrifuged plasma, the resulting plasma was withdrawn and spiked with 1.4 times its volume of acetonitrile before being spun at 6000 rpm for 4 min. The supernatant, collected after the spun at 6000 rpm, was diluted with 3 mL of water, which was then injected into the HPLC system. The HPLC system was constructed with an Agilent 1200 series binary pump (Agilent, Santa Clara, CA, USA), a Rheodyne 7725i (Thermo Scientific, Waltham, MA, USA) manual injection valve, a 5.0 mL loop, and an Oyokoken S-2493Z radiation detector (Oyokoken, Tokyo, Japan) fitted with 50 mm lead shielding, which houses the detector. Chromatographic separation of the radiometabolites from the unchanged radioligand was performed via gradient elution on a semi-preparative reverse-phase ACE 5 µm C18 HL column (250 × 10 mm) using a mobile phase of acetonitrile (A) and ammonium formate 0.1 M (B). A flow rate of 5.0 mL/min was utilized according to the program 0–6.0 min: (A/B) 40:60 → 90:10 v/v; 6.0–10.0 min: (A/B) 90:10 (v/v). The radioactive peak corresponding to the parent radioligand was then integrated from the data output of the HPLC column. The area of this peak was calculated relative to the total area detected for all radioactive compounds. To evaluate the radioactivity recovery from the system, the measurement was taken from a 2 mL aliquot of the eluate taken from the HPLC column and measured against the total injected radioactivity.

Data set [4] in a line: Plasma protein binding by ultrafiltration. The format is in vitro ADME, non-human primate (NHP). The conditions noted are these: cynomolgus monkey, pH 7.4, NHP plasma, baseline. The method, then: The plasma protein binding of all three radioligands was determined in duplicate at the baseline condition according to a previously published method. For each blood plasma sample, 500 μL of non-human primate (NHP) blood plasma was used with 50 μL PBS (pH 7.4 containing KCl 0.2 mg, KH2PO4 0.2 mg, Na2HPO4 1.42 mg, and NaCl 8 mg per mL). The mixture included around 20 MBq of the corresponding radioligand in PBS. Samples underwent incubation at room temperature for 10 min. A small aliquot (20 µL) was taken from each mixture, and radioactivity measurements were performed using a well counter. From each mixture, 200 µL was placed into ultrafiltration tubes (Millipore Centrifree YM-30) and centrifuged at 3000 rpm for 15 minutes. The remaining filtrates were analyzed and aliquots (20 µL) were counted in the well counter described earlier. Protein-bound fractions were calculated as follows:(1) C⥂pla (filtrate) /Cpla (total) ÷CPBS (filtrate) /CPBS (total) ×100(%)
Cpla (total) represents the radioactivity concentration of incubation mixture in plasma and CPBS (total) represents the radioactivity concentration of incubation mixture in PBS. Cpla (filtrate) and CPBS (filtrate) are the radioactivity concentrations from filtrate samples.

The nature of data set [5]: Stability of formulated radioligand in PBS (analytical HPLC). Type of data set: physicochemical. The conditions noted are these: sterile PBS, for 60 min. The method, then:
The radiochemical purity and stability of all three radioligands ([^11C]3, [^18F]1 and [^18F]2) were determined using analytical HPLC coupled with an XBridge analytical column (C18 5 µm, 4.6 × 150 mm particle size), a Merck-Hitachi L-7100 pump, an L-7400 UV detector, and a GM tube for radioactivity detection (VWR International). A mixture of acetonitrile (25%) and HCO2NH4 (0.1 M aq. solution) (75%) with a flow rate of 2 mL/min was used as HPLC isocratic mobile phase. The HPLC liquid flow was monitored using a UV absorbance detector (λ = 254 nm) in conjunction with a radioactive detector (BETA-flow, Beckman, Fullerton, CA, USA). All three radioligands were eluted with a retention time (tR) of 4.0–4.5 min, and the total run time of the HPLC program was 9 min. The identity of the radiolabeled compound was confirmed by co-injecting the corresponding authentic reference standard.

T1 sequence (Q5S007 whole entry): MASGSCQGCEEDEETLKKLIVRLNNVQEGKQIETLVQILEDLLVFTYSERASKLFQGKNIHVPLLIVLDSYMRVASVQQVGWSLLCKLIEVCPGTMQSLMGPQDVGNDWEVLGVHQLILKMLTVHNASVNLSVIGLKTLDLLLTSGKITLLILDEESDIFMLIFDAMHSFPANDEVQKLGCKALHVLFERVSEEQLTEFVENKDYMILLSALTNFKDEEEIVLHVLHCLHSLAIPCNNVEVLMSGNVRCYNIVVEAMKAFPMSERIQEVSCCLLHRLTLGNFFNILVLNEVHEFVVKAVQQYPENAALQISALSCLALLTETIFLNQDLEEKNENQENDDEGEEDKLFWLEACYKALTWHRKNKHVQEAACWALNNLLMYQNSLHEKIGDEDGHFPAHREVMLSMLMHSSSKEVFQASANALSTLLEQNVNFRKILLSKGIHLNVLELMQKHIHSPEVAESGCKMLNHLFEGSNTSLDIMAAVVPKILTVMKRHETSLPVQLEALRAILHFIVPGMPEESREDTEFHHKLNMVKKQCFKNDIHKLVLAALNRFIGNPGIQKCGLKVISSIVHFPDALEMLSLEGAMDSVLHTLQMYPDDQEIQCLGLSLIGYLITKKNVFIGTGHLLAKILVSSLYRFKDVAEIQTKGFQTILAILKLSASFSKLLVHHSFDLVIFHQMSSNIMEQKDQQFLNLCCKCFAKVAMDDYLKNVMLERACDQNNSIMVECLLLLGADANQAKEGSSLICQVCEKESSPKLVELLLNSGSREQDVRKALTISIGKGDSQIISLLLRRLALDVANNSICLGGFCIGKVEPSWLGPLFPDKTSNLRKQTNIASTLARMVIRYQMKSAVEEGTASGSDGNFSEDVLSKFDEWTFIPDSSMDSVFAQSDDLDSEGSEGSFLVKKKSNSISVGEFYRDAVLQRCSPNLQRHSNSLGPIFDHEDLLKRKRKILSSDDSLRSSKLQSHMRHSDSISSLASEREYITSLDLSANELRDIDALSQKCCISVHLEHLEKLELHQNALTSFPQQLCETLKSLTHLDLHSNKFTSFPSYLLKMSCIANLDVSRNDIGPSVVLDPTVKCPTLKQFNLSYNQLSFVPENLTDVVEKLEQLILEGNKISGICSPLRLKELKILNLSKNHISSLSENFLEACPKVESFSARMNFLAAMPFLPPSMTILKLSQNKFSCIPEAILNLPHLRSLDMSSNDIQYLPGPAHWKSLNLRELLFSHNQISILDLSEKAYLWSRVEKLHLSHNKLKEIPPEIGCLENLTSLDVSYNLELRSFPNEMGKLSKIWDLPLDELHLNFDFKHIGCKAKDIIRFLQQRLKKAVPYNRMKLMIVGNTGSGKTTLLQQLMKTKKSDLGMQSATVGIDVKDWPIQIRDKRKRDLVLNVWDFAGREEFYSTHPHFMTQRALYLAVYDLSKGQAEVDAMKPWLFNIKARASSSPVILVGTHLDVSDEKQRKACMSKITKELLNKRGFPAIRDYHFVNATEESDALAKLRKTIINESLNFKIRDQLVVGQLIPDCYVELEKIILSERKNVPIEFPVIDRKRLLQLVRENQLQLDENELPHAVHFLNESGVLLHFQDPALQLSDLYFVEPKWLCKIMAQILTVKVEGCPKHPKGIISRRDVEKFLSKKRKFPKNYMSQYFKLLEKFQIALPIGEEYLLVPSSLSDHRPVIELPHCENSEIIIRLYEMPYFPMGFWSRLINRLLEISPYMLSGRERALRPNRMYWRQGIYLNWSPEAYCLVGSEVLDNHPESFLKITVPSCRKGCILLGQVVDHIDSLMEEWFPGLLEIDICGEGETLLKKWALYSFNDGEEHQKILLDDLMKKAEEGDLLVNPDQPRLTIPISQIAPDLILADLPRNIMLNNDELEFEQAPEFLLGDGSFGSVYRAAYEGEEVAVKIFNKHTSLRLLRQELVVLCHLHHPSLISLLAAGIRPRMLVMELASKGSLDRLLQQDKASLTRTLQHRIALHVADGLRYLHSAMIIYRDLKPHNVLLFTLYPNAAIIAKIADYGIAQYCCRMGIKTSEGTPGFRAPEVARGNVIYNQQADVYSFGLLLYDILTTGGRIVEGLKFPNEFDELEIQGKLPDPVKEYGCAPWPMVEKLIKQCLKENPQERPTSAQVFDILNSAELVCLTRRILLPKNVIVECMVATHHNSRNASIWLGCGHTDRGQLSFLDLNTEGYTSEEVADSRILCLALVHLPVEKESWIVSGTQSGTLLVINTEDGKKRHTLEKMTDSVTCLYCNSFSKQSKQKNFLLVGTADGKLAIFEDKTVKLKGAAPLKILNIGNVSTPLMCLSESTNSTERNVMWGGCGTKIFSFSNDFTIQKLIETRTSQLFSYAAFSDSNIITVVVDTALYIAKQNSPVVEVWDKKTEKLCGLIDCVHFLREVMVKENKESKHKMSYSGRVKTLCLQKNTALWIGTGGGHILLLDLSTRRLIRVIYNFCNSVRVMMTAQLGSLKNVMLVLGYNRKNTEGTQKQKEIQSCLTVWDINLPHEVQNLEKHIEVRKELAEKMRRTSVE
LRRK2 wild-type (WT), sequence (Q5S007 whole entry): as above
LRRK2 G2019S, sequence (Q5S007 whole entry G2019S): as the sequence (Q5S007 whole entry) above, with G2019S counted along it

In general, Papp A→B refers to how fast a substance crosses the layer from the apical side. For the compound `C[C@@H]1C[C@@H](F)CN1c1c(C#N)c2c(N)ncnc2n1C` [Compound 2, 4-Amino-6-((2R,4R)-4-fluoro-2-methylpyrrolidin-1-yl)-7-methyl-7H-pyrrolo[2,3-d]pyrimidine-5-carbo nitrile], the Ki at LRRK2 wild-type (WT) came to 0.32 nM; on LRRK2 G2019S it was 0.37 nM. In addition, in the data set on MDR1 (P-gp) (MDCK-MDR1), the Papp A→B was 44 ×10⁻⁶ cm/s. Moreover, the efflux ratio with MDR1 (P-gp) (MDR1-MDCK, read-out: B:A/A:B (efflux ratio)) was 0.66. The fraction unbound in [1] turned out to be 0.47; in data set [2], 0.23.
Turning to `CCNc1nc(Nc2cc(F)c(C(=O)N3CCOCC3)cc2OC)ncc1C(F)(F)F` [GEN-7915, reference compound], in the data set on cynomolgus monkey brain, the “Blocking effect on [^18F]1 brain binding in vivo” value was “no clear blocking effects”.
As to `Cn1cc(-c2c[nH]c3ncnc(N4CCOCC4)c23)cc1C#N` [PFE-360, reference compound], on LRRK2 (human brain slice, pre-incubation with 0.1 µM), the “Effect on [^18F]1 binding (ARG)” value is given as “did not significantly reduce”. Besides, the “Effect on [^18F]2 binding (ARG)” value at LRRK2 (human striatum, hippocampus, cerebellum, pretreated with 10 µM) is “significantly reduced”. For the same compound, the “Blocking effect on [^18F]1 brain binding in vivo” value in the data set on cynomolgus monkey brain is given as “no clear blocking effects”.
Consider `C[C@@H]1CCCN1c1c(C#N)c2c(N)nc(Nc3cnn([11CH3])c3)nc2n1C` [[^11C]3, (R)-4-Amino-7-methyl-2-((1-[^11C]methyl-1H-pyrazol-4-yl)amino)-6-(2-methylpyrrolidin-1-yl)-7H-pyrrolo[2,3-d]pyrimidine-5-carbonitrile], for which, in the data set on cynomolgus monkey brain (PET, iv, baseline), the Brain uptake was more than 1 %ID, the Brain washout result is on record as “rapid washout” and the “Regional distribution of brain uptake” value is on record as “no significant regional differences”. Also, the “Parent compound, share of eluted plasma radioactivity” value in data set [3] (at 5 min) is listed as “over 90%”. The “Parent compound, share of eluted plasma radioactivity” value in [3] (at 90 min) is “around 10%”. Further, the fraction unbound at 10 min in data set [4] (read-out: Free fraction in plasma (fP)) is approximately 0.15. Besides, the fraction unbound at 10 min in [4] (read-out: Plasma protein binding (converted)) was less than 0.15. Further, in data set [5], the “Radiochemical purity maintained in formulation” value is reported as “exceeding 99%”.
